Data reported in ChEMBL document CHEMBL1240305, “Alkylation of duplex DNA in nucleosome core particles by duocarmycin SA and yatakemycin” (Nat Chem Biol, 2006).
Activity calls are given as the source filed them. The rule behind the calls is not given here.

Assays:
Assay type in all cases: nucleic-acid assay
[1] = test system: Nucleic Acid; assay: Induction of thermal cleavage in alpha satellite DNA at 10 uM at 25 degC after 1 hr by non-denaturating gel electrophoresis
[2] = test system: Nucleic Acid; assay: Induction of thermal cleavage in alpha satellite DNA at 10 uM at 25 degC after 30 mins by non-denaturating gel electrophoresis
[3] = test system: Nucleic Acid; assay: Binding affinity to alpha satellite DNA assessed as neucleosome reconstitution after 17 hrs at 25 degC by non-denaturating gel electrophoresis
[4] = test system: Nucleic Acid; assay: Induction of thermal cleavage in protein free alpha satellite DNA 5'-GGAAAC-3' at 10 uM at 25 degC after 17 hrs by non-denaturating gel electrophoresis
[5] = test system: Nucleic Acid; assay: Induction of thermal cleavage in protein free alpha satellite DNA 5'-GAAACT-3' at 10 uM at 25 degC after 17 hrs by non-denaturating gel electrophoresis
[6] = test system: Nucleic Acid; assay: Induction of thermal cleavage in alpha satellite DNA 5'-GAAACT-3' in […] at 10 uM at 25 degC after 17 hrs by non-denaturating gel electrophoresis
[7] = test system: Nucleic Acid; assay: Induction of thermal cleavage in alpha satellite DNA 5'-GGAAAC-3' in […] at 10 uM at 25 degC after 17 hrs by non-denaturating gel electrophoresis
[8] = test system: Nucleic Acid; assay: Induction of DNA alkylation-mediated […] at 25 degC after 16 hrs by non-denaturating gel electrophoresis
[9] = test system: Nucleic Acid; assay: Induction of thermal cleavage in protein free alpha satellite DNA 5'-CAAAAG-3' at 10 uM at 25 degC after 1 hr by non-denaturating gel electrophoresis
[10] = test system: Nucleic Acid; assay: Induction of thermal cleavage in alpha satellite DNA 5'-CAAAAG-3' in […] at 10 uM at 25 degC after 17 hrs by non-denaturating gel electrophoresis

Activity [3]	Activity [4]	Activity [5]	Activity [6]	Activity [7]	Activity [8]	Activity [9]	Activity [10]	SMILES	Activity [1]	Activity [2]
Active	Active	Active	Active					COc1cc2[nH]c(C(=O)N3C[C@@H]4C[C@]45C3=CC(=O)c3[nH]c(C(=O)N4CCc6c4c(O)c(OC)c4[nH]c(C(=O)SC)cc64)cc35)cc2cc1O		
Active	Active			Active	Active	Active	Active	COc1cc2[nH]c(C(=O)N3C[C@H]4C[C@@]45C3=CC(=O)c3[nH]c(C(=O)N4CCc6c4c(O)c(OC)c4[nH]c(C(=O)SC)cc64)cc35)cc2cc1O		

SMILES	Activity [3]	Activity [4]	Activity [5]	Activity [6]	Activity [7]	Activity [8]	Activity [9]	Activity [10]	Activity [1]	Activity [2]
COC(=O)c1cc2c([nH]1)C(=O)C=C1N(C(=O)c3cc4cc(OC)c(OC)c(OC)c4[nH]3)C[C@H]3C[C@]123	Active	Active							Active	1 ×10⁻⁵ M
